This passage reports Activity and MIC results from ChEMBL document CHEMBL1151468, “Selection of SHV extended-spectrum-beta-lactamase-dependent cefotaxime and ceftazidime resistance in Klebsiella pneumoniae requires a plasmid-borne blaSHV gene” (2008).

≈ marks a conversion by molar mass, not a printed value. Calls of active or inactive are those of the source. The calls are words filed in the database; no cut-off is given here.

In experiment [1] the test system is Klebsiella pneumoniae. Description: Antibacterial activity against ESBL-negative Klebsiella pneumoniae isolate 106 at 1 ug/ml by Etest. Format: functional, organism-based.
Experiment [2] has as its system Klebsiella pneumoniae. Kind of experiment: Antibacterial activity against ESBL-negative Klebsiella pneumoniae isolate 113 at 1 ug/ml by Etest. Format: functional, organism-based.
For experiment [3], the system named is Klebsiella pneumoniae. Description: Antibacterial activity against ESBL-negative Klebsiella pneumoniae isolate 114 at 1 ug/ml by Etest. Format: functional, organism-based.
Experiment [4] has as its system Klebsiella pneumoniae. Description: Antibacterial activity against ESBL-negative Klebsiella pneumoniae isolate 102 at 1 ug/ml by Etest. The experiment is classed as functional, organism-based.
The test system of experiment [5] is Klebsiella pneumoniae. Kind of experiment: Antibacterial activity against ESBL-negative Klebsiella pneumoniae isolate 106 by Etest. The experiment is classed as functional.
Experiment [6] deals with Klebsiella pneumoniae. Kind of experiment: Antibacterial activity against ESBL-negative Klebsiella pneumoniae isolate 116 by Etest. The experiment is classed as functional.
Experiment [7] concerns Klebsiella pneumoniae. Description: Antibacterial activity against ESBL-positive Klebsiella pneumoniae isolate K2 having blaSHV promoter sequence with IS26 insertion by Etest. Format: functional.
Experiment [8] relates to Klebsiella pneumoniae. Description: Antibacterial activity against ESBL-positive Klebsiella pneumoniae isolate J5 having blaSHV promoter sequence with IS26 insertion by Etest. Format: functional.
The subject of experiment [9] is Klebsiella pneumoniae. Kind of experiment: Antibacterial activity against ESBL-positive Klebsiella pneumoniae isolate 121 having upstream IS26 insertion by Etest. Format: functional.
Experiment [10] deals with Klebsiella pneumoniae. Description: Antibacterial activity against ESBL-negative Klebsiella pneumoniae isolate M1 by Etest. Format: functional.
The subject of experiment [11] is Klebsiella pneumoniae. Kind of experiment: Antibacterial activity against ESBL-negative Klebsiella pneumoniae isolate 102 by Etest. The experiment is classed as functional.
In experiment [12] the test system is Klebsiella pneumoniae. Kind of experiment: Antibacterial activity against ESBL-negative Klebsiella pneumoniae isolate 104 by Etest. Format: functional.
Experiment [13] has as its system Klebsiella pneumoniae. Kind of experiment: Antibacterial activity against ESBL-negative Klebsiella pneumoniae isolate 30 by Etest. The experiment is classed as functional.
Experiment [14] has as its system Klebsiella pneumoniae. Description: Antibacterial activity against ESBL-positive Klebsiella pneumoniae isolate J4 having blaSHV promoter sequence with IS26 insertion by Etest. The experiment is classed as functional.
In experiment [15] the test system is Klebsiella pneumoniae. Kind of experiment: Antibacterial activity against ESBL-negative Klebsiella pneumoniae isolate 114 by Etest. Format: functional.
Experiment [16] deals with Klebsiella pneumoniae. Kind of experiment: Antibacterial activity against ESBL-positive Klebsiella pneumoniae isolate 110 having upstream IS26 insertion by Etest. The experiment is classed as functional.
Experiment [17] deals with Klebsiella pneumoniae. Description: Antibacterial activity against ESBL-negative Klebsiella pneumoniae isolate 113 by Etest. The experiment is classed as functional.
For experiment [18], the system named is Klebsiella pneumoniae. Description: Antibacterial activity against ESBL-negative Klebsiella pneumoniae isolate 115 by Etest. Format: functional.
The subject of experiment [19] is Klebsiella pneumoniae. Kind of experiment: Antibacterial activity against ESBL-positive Klebsiella pneumoniae isolate 120 having upstream IS26 insertion by Etest. The experiment is classed as functional.
In experiment [20] the test system is Klebsiella pneumoniae. Kind of experiment: Antibacterial activity against ESBL-positive Klebsiella pneumoniae isolate 119 having blaSHV promoter sequence with IS26 insertion by Etest. Format: functional.
Experiment [21] deals with Klebsiella pneumoniae. Kind of experiment: Antibacterial activity against ESBL-negative Klebsiella pneumoniae isolate 108 by Etest. The experiment is classed as functional.
Experiment [22] deals with Klebsiella pneumoniae. Description: Antibacterial activity against ESBL-negative Klebsiella pneumoniae isolate 109 by Etest. Format: functional.
Experiment [23] concerns Klebsiella pneumoniae. Kind of experiment: Antibacterial activity against ESBL-negative Klebsiella pneumoniae isolate 85 by Etest. Format: functional.
Experiment [24] concerns Klebsiella pneumoniae. Kind of experiment: Antibacterial activity against ESBL-negative Klebsiella pneumoniae isolate 107 by Etest. Format: functional.
Experiment [25] has as its system Klebsiella pneumoniae. Kind of experiment: Antibacterial activity against ESBL-negative Klebsiella pneumoniae isolate 105 by Etest. Format: functional.

With `CC(C)(O/N=C(\C(=O)N[C@@H]1C(=O)N2C(C(=O)[O-])=C(C[n+]3ccccc3)CS[C@H]12)c1csc(N)n1)C(=O)O`, the outcome in the experiment with Klebsiella pneumoniae [1], with Klebsiella pneumoniae [2], with Klebsiella pneumoniae [3] and in the experiment on Klebsiella pneumoniae [4] was Active.
As to `CO/N=C(\C(=O)N[C@@H]1C(=O)N2C(C(=O)O)=C(COC(C)=O)CS[C@H]12)c1csc(N)n1` [CEFOTAXIME], the minimal inhibitory concentration (MIC) with Klebsiella pneumoniae [5] was more than 16 µg/mL; against Klebsiella pneumoniae [6], more than 16 µg/mL; in the experiment on Klebsiella pneumoniae [7] it was more than 16 µg/mL; against Klebsiella pneumoniae [8] it was more than 16 µg/mL; with Klebsiella pneumoniae [9] it was more than 16 µg/mL; against Klebsiella pneumoniae [10], 4 µg/mL (≈ 8.78 µM). In addition, the MIC in the experiment with Klebsiella pneumoniae [11] was 3 µg/mL (≈ 6.59 µM); against Klebsiella pneumoniae [12], 3 µg/mL (≈ 6.59 µM); against Klebsiella pneumoniae [13], more than 16 µg/mL; against Klebsiella pneumoniae [14] it was more than 16 µg/mL; in the experiment on Klebsiella pneumoniae [15], more than 16 µg/mL; with Klebsiella pneumoniae [16] it was more than 16 µg/mL. The minimal inhibitory concentration (MIC) was more than 16 µg/mL in the experiment on Klebsiella pneumoniae [17]; 8 µg/mL (≈ 17.6 µM) in the experiment with Klebsiella pneumoniae [18]; more than 16 µg/mL with Klebsiella pneumoniae [19]; more than 16 µg/mL against Klebsiella pneumoniae [20]; 6 µg/mL (≈ 13.2 µM) against Klebsiella pneumoniae [21]; more than 16 µg/mL in the experiment with Klebsiella pneumoniae [22]. Moreover, the MIC against Klebsiella pneumoniae [23] is more than 16 µg/mL; in the experiment with Klebsiella pneumoniae [24], 0.5 µg/mL (≈ 1.1 µM); with Klebsiella pneumoniae [25], more than 16 µg/mL.
